Marks after values point to notes of the source that are not given here.
Key:
[1] = tested on: ouabain induced arrhythmia (VT, VF, mortality); experiment: Ouabain induced arrhythmia model in guinea pig; format: in vivo; settings: for actual incidence of mortality (value in parenthesis): 60 min; for actual incidence of mortality (value in parenthesis) / actual incidence of VF (value in parenthesis) / actual incidence of VT (value in parenthesis): number of animals of the group; for % INCIDENCE OF MORTALITY: mortality at 60 min; for deaths due to conduction block (60 min), actual incidence (value in parenthesis) / deaths due to tachyarrhythmia (60 min), actual incidence (value in parenthesis): number of animals; for % INCIDENCE OF VF / % INCIDENCE OF VT: ouabain 240 μg/kg in three doses, observed one hour; for DEATHS DUE TO CONDUCTION BLOCK (60 MIN) Percentage / DEATHS DUE TO TACHYARRHYTHMIA (60 MIN) Percentage: percentage deaths out of total mortality
Source text: Method: Guinea pigs (Dunken Hartley) of either sex weighing between 400 and 500 g were used for the study. The animals were anesthetized with urethane (1.25 g/kg. i.p.). The left common carotid artery and left jugular vein were cannulated for arterial blood pressure monitoring and intravenous access respectively. Lead II electrocardiogram, arterial blood pressure, mean arterial blood pressure (MABP), heart rate were monitored throughout the experiment.
After initial surgical preparations and allowing 30 minutes for the animal to stabilise the first dose of ouabain (90 μg/kg) was administered over a period of one minute. After the interval of thirty minutes, second dose of ouabain (60 μg/kg) was administered over a period of one minute. One minute after this dose, 0.5 ml saline (in control experiments) was administered over a period of one minute. After an interval of 10 minutes a third dose of ouabain (90 μg/kg) was administered over a period of one minute. […] The test compounds were administered to animals in test group in place of saline to evaluate their antiarrhythmic potential. From the ECG recordings, the incidence of VT, VF and mortality were recorded. The doses of ratios of sotalol isomers studied were 0.1, 0.5 and 2.5 mg/kg.
Interpretation of ECG recordings: Minor disturbance in rhythm was not considered while evaluating ventricular tachyarrhythmias. A run of more than 3 ventricular ectopic beats having wide QRS complexes associated with partial haemodynamic collapse was considered as Ventricular Tachycardia (VT). Total morphological irregularity of repetitive complexes for at least six cycles associated with complete haemodynamic collapse was considered as Ventricular Fibrillation (VF). Successful arrhythmia protection was defined as no occurrence of VT and VF from the injection of saline/test drug till the end of the experiment.
Statistics: Chi square test with continuity correction at 95% confidence limit was applied to find out the statistical significance between control and test groups for incidence of VT, VF and mortality. Whenever, any of the value in a cell was less than 5, Fischer's exact probability test was used.
Results: Different ratios of sotalol in the dose range from 0.02 mg/kg to 12.5 mg/kg were studied in individual groups of animals. In all 18 groups were studied and at least 6 animals were used in each group. In control animals ouabain 240 μg/kg in three divided doses induced reproducible ventricular tachyarrhythmias in guinea pigs. It was observed that ventricular arrhythmias appeared after the administration of the third dose. Guinea pigs which responded early i.e. before or within 1 min. of administration of the second dose, were considered early responders and were not included in the study. […] In the study, control experiments were carried out randomly interspersed in test groups. Among the 42 control animals the incidence of VT was 81%, incidence of VF was 71.4% and the incidence of mortality at 60 minutes was 61.9%.

[2] = tested on: beta adrenergic blockade, isolated right auricle preparation of rabbit; experiment: Beta blocking potency (pA2 against isoprenaline) in isolated rabbit right auricle; settings: isoprenaline chronotropic response, Schild's plot
Description: Estimation of the beta blockade of various ratios of d- and l- isomers of sotalol was carried out in the isolated right auricle preparation of rabbit. The spontaneously beating right atrium was dissected and mounted in a 20 ml tissue bath. The resting tension on the atria was set at 1 g. The contractions were recorded using a force displacement transducer. The spontaneous contractions of the right atria were recorded isometrically and the heart rate was obtained as a derived parameter using a ratemeter that gave the output in beats per minute. Six different ratios of d and l isomers were investigated (1:1, 2:1, 3:1, 4:1, 5:1 and 1:0). Dose-response-curves (DRC) for isoprenaline in the isolated atria, using the chronotropic response were determined by cumulative addition of isoprenaline. The pA2 values of each of the ratios were estimated using the classical Schild's plot (Schild, 1957) and the values are shown in Table 1.

Structure (SMILES)	actual incidence of mortality (value in parenthesis) ([1]; 0.5 mg/kg)	% INCIDENCE OF MORTALITY ([1]; 0.5 mg/kg) [%]	deaths due to conduction block (60 min), actual incidence (value in parenthesis) ([1]; 0.5 mg/kg)	deaths due to tachyarrhythmia (60 min), actual incidence (value in parenthesis) ([1]; 0.5 mg/kg)	actual incidence of VF (value in parenthesis) ([1]; 0.5 mg/kg)	actual incidence of VT (value in parenthesis) ([1]; 0.5 mg/kg)	% INCIDENCE OF VF ([1]; 0.5 mg/kg) [%]	% INCIDENCE OF VT ([1]; 0.5 mg/kg) [%]	DEATHS DUE TO CONDUCTION BLOCK (60 MIN) Percentage ([1]; 0.5 mg/kg) [%]	DEATHS DUE TO TACHYARRHYTHMIA (60 MIN) Percentage ([1]; 0.5 mg/kg) [%]	actual incidence of mortality (value in parenthesis) ([1]; 2.5 mg/kg)	% INCIDENCE OF MORTALITY ([1]; 2.5 mg/kg) [%]	deaths due to conduction block (60 min), actual incidence (value in parenthesis) ([1]; 2.5 mg/kg)	deaths due to tachyarrhythmia (60 min), actual incidence (value in parenthesis) ([1]; 2.5 mg/kg)	actual incidence of VF (value in parenthesis) ([1]; 2.5 mg/kg)	actual incidence of VT (value in parenthesis) ([1]; 2.5 mg/kg)	% INCIDENCE OF VF ([1]; 2.5 mg/kg) [%]	% INCIDENCE OF VT ([1]; 2.5 mg/kg) [%]	DEATHS DUE TO CONDUCTION BLOCK (60 MIN) Percentage ([1]; 2.5 mg/kg) [%]	DEATHS DUE TO TACHYARRHYTHMIA (60 MIN) Percentage ([1]; 2.5 mg/kg) [%]	further results
CC(C)NCC(O)c1ccc(NS(C)(=O)=O)cc1 (stereo not drawn) [d-SOTALOL, N-[4-[1-hydroxy-2-[(1-methylethyl)amino]ethyl]phenyl] methane sulfonamide]	(5)	50.0	(1)	(4)	(7)	(7)	70.0	70.0	20.0	80.0	(6)	66.6	(3)	(3)	(6)	(7)	66.6	77.7	50.0	50.0	actual incidence of mortality (value in parenthesis) ([1]; 12.5 mg/kg): (6); % INCIDENCE OF MORTALITY ([1]; 12.5 mg/kg): 100.0%; % INCIDENCE OF MORTALITY ([1]; 12.5 mg/kg, listed as d-Sotalol): 100%; deaths due to conduction block (60 min), actual incidence (value in parenthesis) ([1]; 12.5 mg/kg): (3); deaths due to tachyarrhythmia (60 min), actual incidence (value in parenthesis) ([1]; 12.5 mg/kg): (3); actual incidence of VF (value in parenthesis) ([1]; 12.5 mg/kg): (3); actual incidence of VT (value in parenthesis) ([1]; 12.5 mg/kg): (3); % INCIDENCE OF VF ([1]; 12.5 mg/kg): 50.0%; % INCIDENCE OF VT ([1]; 12.5 mg/kg): 50.0%; DEATHS DUE TO CONDUCTION BLOCK (60 MIN) Percentage ([1]; 12.5 mg/kg): 50.0%; DEATHS DUE TO TACHYARRHYTHMIA (60 MIN) Percentage ([1]; 12.5 mg/kg): 50.0%; cause of deaths ([1]; doses 2.5 mg/kg and 12.5 mg/kg): equally due to conduction abnormality as well as tachyarrhythmias; protection against ouabain induced VF ([1]; no dose stated): ineffective; protection against ouabain induced VT ([1]; no dose stated): ineffective; pA2 Mean ([2]; listed as 1:0): 5.44; pA2 Mean ([2]; listed as pure d-isomer of sotalol): 5.44
CC(C)NCC(O)c1ccc(NS(C)(=O)=O)cc1 (stereo not shown) [3:1 RATIO, N-[4-[1-hydroxy-2-[(1-methylethyl)amino]ethyl]phenyl] methane sulfonamide]	(3)	37.5	(3)	(0)*	(2)	(3)*	25.0	37.5	100.0	00.0	(2)	33.3	(2)	(0)	(0)*	(0)*	00.0	00.0	100.0	00.0	actual incidence of mortality (value in parenthesis) ([1]; 0.1 mg/kg): (2); % INCIDENCE OF MORTALITY ([1]; 0.1 mg/kg): 33.3%; deaths due to conduction block (60 min), actual incidence (value in parenthesis) ([1]; 0.1 mg/kg): (1); deaths due to tachyarrhythmia (60 min), actual incidence (value in parenthesis) ([1]; 0.1 mg/kg): (1); actual incidence of VF (value in parenthesis) ([1]; 0.1 mg/kg): (4); actual incidence of VT (value in parenthesis) ([1]; 0.1 mg/kg): (4); % INCIDENCE OF VF ([1]; 0.1 mg/kg): 66.6%; % INCIDENCE OF VT ([1]; 0.1 mg/kg): 66.6%; DEATHS DUE TO CONDUCTION BLOCK (60 MIN) Percentage ([1]; 0.1 mg/kg): 50.0%; DEATHS DUE TO TACHYARRHYTHMIA (60 MIN) Percentage ([1]; 0.1 mg/kg): 50.0%; protection against ouabain induced VT ([1]; 0.5 mg/kg, listed as 3:1 ratio (d:l)): showed protection; protection against arrhythmias (VT and VF) ([1]; 2.5 mg/kg): protected; protection from deaths due to tachyarrhythmias ([1]; 2.5 mg/kg): completely protected; protection against arrhythmias (VT and VF) ([1]; 2.5 mg/kg, listed as 3:1): complete protection; % INCIDENCE OF MORTALITY ([1]; 2.5 mg/kg, listed as 3:1 ratio): 33.3%; mortality ([1]; 0.5 and 2.5 mg/kg dose): low; dose at which complete protection against VT was observed ([1]; guinea pig, in vivo, listed as 3:1 ratio (d:l)): 2.5 mg/kg; cause of deaths ([1]; no dose stated): due to conduction abnormalities; mortality compared with control groups ([1]; no dose stated): less than that of control groups; pA2 Mean ([2]; listed as 3:1): 6.15

Source: patent US20010004643A1, “Pharmaceutical composition with sotalol combination and their use in treatment of cardiac ailments” (priority 1999, published 2001)
